According to paper PMC5218480 (PLoS ONE, 2017):

Test system: MV-4-11 cells
Assay: Gene expression microarray analysis (Affymetrix PrimeView) and GSEA
Type: cell-based, human
Design: RFU PODN (11730768_x_at) / Fold change /veh PODN (11730768_x_at) / RFU LINC00158 (11744669_a_at) / Fold change /veh LINC00158 (11744669_a_at) / RFU DUSP10 (11751237_a_at) / Fold change /veh DUSP10 (11751237_a_at) / RFU ID3 (11757404_x_at) / Fold change /veh ID3 (11757404_x_at) / RFU PLEKHG5 (11737974_s_at) / Fold change /veh PLEKHG5 (11737974_s_at) / RFU LRRC4B (11730491_at) / Fold change /veh LRRC4B (11730491_at) / RFU GIMAP4 (11747438_a_at) / Fold change /veh GIMAP4 (11747438_a_at) / RFU KRT8 (11758183_x_at) / Fold change /veh KRT8 (11758183_x_at) / RFU CNN1 (11734310_a_at) / Fold change /veh CNN1 (11734310_a_at) / RFU VPS37D (11726825_at) / Fold change /veh VPS37D (11726825_at) / RFU C10orf10 (11716522_x_at) / Fold change /veh C10orf10 (11716522_x_at) / RFU KIR2DL2 /// KIR2DL4 /// KIR2DL5A /// KIR2DL5B /// KIR2DS1 /// KIR2DS2 /// KIR2DS3 /// KIR2DS4 /// KIR3DL3 /// KIR3DL3 /// KIR3DS1 (11738374_at) / Fold change /veh KIR2DL2 /// KIR2DL4 /// KIR2DL5A /// KIR2DL5B /// KIR2DS1 /// KIR2DS2 /// KIR2DS3 /// KIR2DS4 /// KIR3DL3 /// KIR3DL3 /// KIR3DS1 (11738374_at) / RFU C1QL1 (11718748_at) / Fold change /veh C1QL1 (11718748_at) / RFU TMPRSS4 (11747572_a_at) / Fold change /veh TMPRSS4 (11747572_a_at) / RFU HAMP (11756126_x_at) / Fold change /veh HAMP (11756126_x_at) / RFU RNFT2 (11725882_a_at) / Fold change /veh RNFT2 (11725882_a_at) / RFU NR4A2 (11747474_a_at) / Fold change /veh NR4A2 (11747474_a_at) / RFU ABCC12 (11746883_a_at) / Fold change /veh ABCC12 (11746883_a_at) / RFU TMEM136 (11760407_x_at) / Fold change /veh TMEM136 (11760407_x_at) / RFU CLDN22 /// WWC2 (11732394_at) / Fold change /veh CLDN22 /// WWC2 (11732394_at) / RFU HLA-DPB1 (11760878_x_at) / Fold change /veh HLA-DPB1 (11760878_x_at) / RFU SPINT1 (11716480_a_at) / Fold change /veh SPINT1 (11716480_a_at) / RFU GAP43 (11754022_s_at) / Fold change /veh GAP43 (11754022_s_at) / RFU A4GNT (11735810_at) / Fold change /veh A4GNT (11735810_at) / RFU PRB3 (11715151_x_at) / Fold change /veh PRB3 (11715151_x_at) / RFU TUBB4B (11761932_at) / Fold change /veh TUBB4B (11761932_at) / RFU CAPN14 (11732068_a_at) / Fold change /veh CAPN14 (11732068_a_at) / RFU TMCC2 (11721928_a_at) / Fold change /veh TMCC2 (11721928_a_at) / RFU IRGQ (11745062_a_at) / Fold change /veh IRGQ (11745062_a_at) / RFU FAM174B (11720279_a_at) / Fold change /veh FAM174B (11720279_a_at) / RFU TMPRSS4 (11748680_a_at) / Fold change /veh TMPRSS4 (11748680_a_at) / RFU FAM212B (11763350_a_at) / Fold change /veh FAM212B (11763350_a_at) / RFU PLEKHG5 (11743358_a_at) / Fold change /veh PLEKHG5 (11743358_a_at) / RFU ZSCAN30 (11745921_a_at) / Fold change /veh ZSCAN30 (11745921_a_at) / RFU CMKLR1 (11741424_a_at) / Fold change /veh CMKLR1 (11741424_a_at) / RFU LOC101060620 /// MAPK8IP1 (11723275_at) / Fold change /veh LOC101060620 /// MAPK8IP1 (11723275_at) / RFU SPTSSB (11747773_x_at) / Fold change /veh SPTSSB (11747773_x_at) / RFU PRSS12 (11739890_at) / Fold change /veh PRSS12 (11739890_at) / RFU BIN1 (11741810_x_at) / Fold change /veh BIN1 (11741810_x_at) / RFU WNT11 (11732464_a_at) / Fold change /veh WNT11 (11732464_a_at) / RFU C10orf10 (11716521_a_at) / Fold change /veh C10orf10 (11716521_a_at) / RFU C5orf56 (11738089_at) / Fold change /veh C5orf56 (11738089_at) / RFU CYB561 (11721691_x_at) / Fold change /veh CYB561 (11721691_x_at) / RFU ANKRD19P (11752326_a_at) / Fold change /veh ANKRD19P (11752326_a_at) / RFU OR2T12 /// OR2T33 /// OR2T8 (11738714_s_at) / Fold change /veh OR2T12 /// OR2T33 /// OR2T8 (11738714_s_at) / RFU VCAN (11748164_a_at) / Fold change /veh VCAN (11748164_a_at) / RFU JSRP1 (11732532_at) / Fold change /veh JSRP1 (11732532_at) / RFU KRTAP10-11 (11738290_x_at) / Fold change /veh KRTAP10-11 (11738290_x_at) / RFU MYO3A (11730013_a_at) / Fold change /veh MYO3A (11730013_a_at) / RFU EBF3 (11725865_a_at) / Fold change /veh EBF3 (11725865_a_at) / RFU CAMK2N1 (11719241_x_at) / Fold change /veh CAMK2N1 (11719241_x_at) / RFU C5orf56 (11738088_a_at) / Fold change /veh C5orf56 (11738088_a_at) / RFU OLFML3 (11715873_a_at) / Fold change /veh OLFML3 (11715873_a_at) / RFU LOC100653217 /// NTM (11731650_a_at) / Fold change /veh LOC100653217 /// NTM (11731650_a_at) / RFU MAPK11 (11762145_a_at) / Fold change /veh MAPK11 (11762145_a_at) / RFU FIZ1 (11724087_x_at) / Fold change /veh FIZ1 (11724087_x_at) / RFU OASL (11726364_x_at) / Fold change /veh OASL (11726364_x_at) / RFU SOX15 (11748057_x_at) / Fold change /veh SOX15 (11748057_x_at) / RFU CD79A (11719716_a_at) / Fold change /veh CD79A (11719716_a_at) / RFU HIST1H1D (11736915_at) / Fold change /veh HIST1H1D (11736915_at) / RFU CASKIN2 (11723855_a_at) / Fold change /veh CASKIN2 (11723855_a_at) / RFU LOC730098 (11760151_x_at) / Fold change /veh LOC730098 (11760151_x_at) / RFU OR4N2 (11742367_at) / Fold change /veh OR4N2 (11742367_at) / RFU PRRT2 (11749266_a_at) / Fold change /veh PRRT2 (11749266_a_at) / RFU SNX32 (11753110_a_at) / Fold change /veh SNX32 (11753110_a_at) / RFU CDHR5 (11726645_a_at) / Fold change /veh CDHR5 (11726645_a_at) / RFU RCAN1 (11760418_a_at) / Fold change /veh RCAN1 (11760418_a_at) / RFU FAM167A (11723789_a_at) / Fold change /veh FAM167A (11723789_a_at) / RFU FAM26E (11764081_at) / Fold change /veh FAM26E (11764081_at) / RFU ISYNA1 (11749810_s_at) / Fold change /veh ISYNA1 (11749810_s_at) / RFU ACY1 (11761880_at) / Fold change /veh ACY1 (11761880_at) / RFU 11764098_at / Fold change /veh 11764098_at / RFU SAMD14 (11745864_x_at) / Fold change /veh SAMD14 (11745864_x_at) / RFU NPB (11741838_a_at) / Fold change /veh NPB (11741838_a_at) / RFU TMPRSS6 (11731388_a_at) / Fold change /veh TMPRSS6 (11731388_a_at) / RFU KRTAP10-2 (11738614_at) / Fold change /veh KRTAP10-2 (11738614_at) / RFU ARHGAP8 /// PRR5-ARHGAP8 (11727945_x_at) / Fold change /veh ARHGAP8 /// PRR5-ARHGAP8 (11727945_x_at) / RFU KRTAP5-7 /// NADSYN1 (11734609_at) / Fold change /veh KRTAP5-7 /// NADSYN1 (11734609_at) / RFU RASL12 (11751679_a_at) / Fold change /veh RASL12 (11751679_a_at) / RFU CDKN2B (11736163_a_at) / Fold change /veh CDKN2B (11736163_a_at) / RFU PRF1 (11729649_at) / Fold change /veh PRF1 (11729649_at) / RFU, ZNF638 /// ZNF638-IT1 / Fold change vs veh, ZNF638 /// ZNF638-IT1 / RFU, PANK3 / Fold change vs veh, PANK3 / RFU, SH3YL1 / Fold change vs veh, SH3YL1 / RFU, ZEB2 / Fold change vs veh, ZEB2 / RFU, NRIP1 / Fold change vs veh, NRIP1 / RFU, PTTG1IP / Fold change vs veh, PTTG1IP / RFU, CAPN2 / Fold change vs veh, CAPN2 / RFU, MED14 / Fold change vs veh, MED14 / RFU, SNORA58 / Fold change vs veh, SNORA58 / RFU, C1orf63 / Fold change vs veh, C1orf63 / RFU, LRRFIP1 / Fold change vs veh, LRRFIP1 / RFU, NDUFAF7 / Fold change vs veh, NDUFAF7 / RFU, SLC12A2 / Fold change vs veh, SLC12A2 / RFU, IBTK / Fold change vs veh, IBTK / RFU, ESF1 / Fold change vs veh, ESF1 / Fold change vs veh, TMEM50B / RFU, TAOK1 / Fold change vs veh, TAOK1 / RFU, ACBD3 / Fold change vs veh, ACBD3 / RFU, TMA16 / Fold change vs veh, TMA16 / RFU, RWDD3 / Fold change vs veh, RWDD3 / RFU, BCAT1 / Fold change vs veh, BCAT1 / RFU, EDEM3 / Fold change vs veh, EDEM3 / RFU, TMEM33 / Fold change vs veh, TMEM33 / RFU, WDR75 / Fold change vs veh, WDR75 / RFU, AHCTF1 / Fold change vs veh, AHCTF1 / RFU, TFRC / Fold change vs veh, TFRC / RFU, ZDHHC17 / Fold change vs veh, ZDHHC17 / RFU, NOM1 / Fold change vs veh, NOM1 / RFU, ARL8B / Fold change vs veh, ARL8B / RFU, ZBTB11 / Fold change vs veh, ZBTB11 / RFU, TAMM41 / Fold change vs veh, TAMM41 / RFU, KIAA1704 /// LOC100996395 / Fold change vs veh, KIAA1704 /// LOC100996395 / RFU, ING1 / Fold change vs veh, ING1 / RFU, TRMT61B / Fold change vs veh, TRMT61B / RFU, FUBP3 / Fold change vs veh, FUBP3 / RFU, TP53 / Fold change vs veh, TP53 / RFU, TNKS2 / Fold change vs veh, TNKS2 / RFU, ZFP14 / Fold change vs veh, ZFP14 / RFU, ACTR2 / Fold change vs veh, ACTR2 / RFU, PPP3R1 / Fold change vs veh, PPP3R1 / RFU, PIK3R1 / Fold change vs veh, PIK3R1 / RFU, HNRNPA1 / Fold change vs veh, HNRNPA1 / RFU, RNF170 / Fold change vs veh, RNF170 / RFU, ZNF28 / Fold change vs veh, ZNF28 / RFU, RNGTT / Fold change vs veh, RNGTT / RFU, OGT / Fold change vs veh, OGT / RFU, BRD1 / Fold change vs veh, BRD1 / RFU, MARS / Fold change vs veh, MARS / RFU, ZNF655 / Fold change vs veh, ZNF655 / RFU, FAHD1 / Fold change vs veh, FAHD1 / RFU, BDP1 / Fold change vs veh, BDP1 / RFU, LRRCC1 / Fold change vs veh, LRRCC1 / RFU, ARID1A / Fold change vs veh, ARID1A / RFU, ZNF146 / Fold change vs veh, ZNF146 / RFU, ZNF330 / Fold change vs veh, ZNF330 / RFU, GPN3 / Fold change vs veh, GPN3 / RFU, C9orf123 / Fold change vs veh, C9orf123 / RFU, N4BP2L2 / Fold change vs veh, N4BP2L2 / RFU, ARFIP1 / Fold change vs veh, ARFIP1 / RFU, FAM179B / Fold change vs veh, FAM179B / RFU, BCL10 / Fold change vs veh, BCL10 / RFU, UHRF1BP1L / Fold change vs veh, UHRF1BP1L / RFU, BET1 / Fold change vs veh, BET1 / RFU, CNOT2 / Fold change vs veh, CNOT2 / RFU, ZNF268 / Fold change vs veh, ZNF268 / Fold change vs veh, ZNF507 / RFU, DGCR2 / Fold change vs veh, DGCR2 / RFU, WDSUB1 / Fold change vs veh, WDSUB1 / Fold change vs veh, HSP90B1 /// MIR3652 / RFU, ADSS / Fold change vs veh, ADSS / RFU, GK / Fold change vs veh, GK / RFU, ZNF148 / Fold change vs veh, ZNF148 / RFU, TAF9 / Fold change vs veh, TAF9 / RFU, SLC1A5 / Fold change vs veh, SLC1A5 / RFU, SLMO2 / Fold change vs veh, SLMO2 / RFU, ABCC4 / Fold change vs veh, ABCC4 / RFU, LOC101060439 /// RAP1B / Fold change vs veh, LOC101060439 /// RAP1B / RFU, RFX7 / Fold change vs veh, RFX7 / RFU, GTPBP10 / Fold change vs veh, GTPBP10 / RFU, CNEP1R1 / Fold change vs veh, CNEP1R1 / RFU, BIVM-ERCC5 /// ERCC5 / Fold change vs veh, BIVM-ERCC5 /// ERCC5 / RFU, ILF3 / Fold change vs veh, ILF3 / RFU 11762660_at / Fold change /veh 11762660_at / RFU VCAN (11757783_s_at) / Fold change /veh VCAN (11757783_s_at) / RFU DDX43 (11728927_at) / Fold change /veh DDX43 (11728927_at) / RFU KRT8 (11758188_x_at) / Fold change /veh KRT8 (11758188_x_at) / RFU NKD1 (11759106_at) / Fold change /veh NKD1 (11759106_at) / RFU SRD5A1 (11742802_a_at) / Fold change /veh SRD5A1 (11742802_a_at) / RFU TPSAB1 /// TPSB2 (11721975_s_at) / Fold change /veh TPSAB1 /// TPSB2 (11721975_s_at) / RFU GSTM3 (11746129_a_at) / Fold change /veh GSTM3 (11746129_a_at) / RFU IL23R (11737362_x_at) / Fold change /veh IL23R (11737362_x_at) / RFU TMEM51 (11727254_a_at) / Fold change /veh TMEM51 (11727254_a_at) / RFU PIWIL2 (11732686_x_at) / Fold change /veh PIWIL2 (11732686_x_at) / RFU ORM1 (11744905_x_at) / Fold change /veh ORM1 (11744905_x_at) / RFU CCDC152 (11743942_at) / Fold change /veh CCDC152 (11743942_at) / RFU ECM1 (11717891_a_at) / Fold change /veh ECM1 (11717891_a_at) / RFU IL23R (11748794_a_at) / Fold change /veh IL23R (11748794_a_at) / RFU TNFAIP8L3 (11732012_x_at) / Fold change /veh TNFAIP8L3 (11732012_x_at) / RFU MBOAT4 (11741988_at) / Fold change /veh MBOAT4 (11741988_at) / RFU 11764193_at / Fold change /veh 11764193_at / RFU TMEM53 (11763286_at) / Fold change /veh TMEM53 (11763286_at) / RFU MAGEB2 (11727129_at) / Fold change /veh MAGEB2 (11727129_at) / RFU TMEM200A (11744735_a_at) / Fold change /veh TMEM200A (11744735_a_at) / RFU CCDC152 (11751479_a_at) / Fold change /veh CCDC152 (11751479_a_at) / RFU FAM211A (11726209_a_at) / Fold change /veh FAM211A (11726209_a_at) / RFU RGS16 (11746705_a_at) / Fold change /veh RGS16 (11746705_a_at) / RFU VCAN (11755009_s_at) / Fold change /veh VCAN (11755009_s_at) / RFU RHOB (11743442_s_at) / Fold change /veh RHOB (11743442_s_at) / RFU RGS16 (11720943_a_at) / Fold change /veh RGS16 (11720943_a_at) / RFU RGS16 (11720944_at) / Fold change /veh RGS16 (11720944_at) / RFU, VPS4B / Fold change vs veh, VPS4B / RFU, CREB1 / Fold change vs veh, CREB1 / RFU, DNAJC13 / Fold change vs veh, DNAJC13 / RFU, GNAQ / Fold change vs veh, GNAQ / RFU, CDK5R1 / Fold change vs veh, CDK5R1 / RFU, ZRANB3 / Fold change vs veh, ZRANB3 / RFU, CUL4A / Fold change vs veh, CUL4A / RFU, CCNY / Fold change vs veh, CCNY / RFU, UFL1 / Fold change vs veh, UFL1 / RFU, COG3 / Fold change vs veh, COG3 / RFU, DIAPH2 / Fold change vs veh, DIAPH2 / RFU, SKA2 / Fold change vs veh, SKA2 / RFU, AFF3 / Fold change vs veh, AFF3 / RFU, LMF1 / Fold change vs veh, LMF1 / RFU, IPO11 / Fold change vs veh, IPO11 / RFU, DFFB / Fold change vs veh, DFFB / RFU, FOXP1 / Fold change vs veh, FOXP1 / RFU, CARD8 / Fold change vs veh, CARD8 / RFU, STRN3 / Fold change vs veh, STRN3 / RFU, ADK / Fold change vs veh, ADK / RFU, RASSF2 / Fold change vs veh, RASSF2 / RFU, WIPF1 / Fold change vs veh, WIPF1 / RFU, LARP1B / Fold change vs veh, LARP1B / RFU, RASA1 / Fold change vs veh, RASA1 / RFU, RB1 / Fold change vs veh, RB1 / RFU, PPFIA1 / Fold change vs veh, PPFIA1 / RFU, MAT2A / Fold change vs veh, MAT2A / RFU, CCT5 / Fold change vs veh, CCT5 / RFU, WDR92 / Fold change vs veh, WDR92 / RFU, CUX1 / Fold change vs veh, CUX1 / RFU, TTC7A / Fold change vs veh, TTC7A / RFU, TMEM135 / Fold change vs veh, TMEM135 / RFU, DEPTOR / Fold change vs veh, DEPTOR / RFU, CPM / Fold change vs veh, CPM / RFU, DNAJB6 / Fold change vs veh, DNAJB6 / RFU, CACNA2D3 / Fold change vs veh, CACNA2D3 / RFU, DTX4 / Fold change vs veh, DTX4 / RFU, TFCP2 / Fold change vs veh, TFCP2 / RFU, GMCL1 /// GMCL1P1 / Fold change vs veh, GMCL1 /// GMCL1P1 / RFU, AEBP2 / Fold change vs veh, AEBP2 / RFU, SNHG1 /// SNORD22 /// SNORD25 /// SNORD26 /// SNORD27 /// SNORD28 /// SNORD29 /// SNORD31 / Fold change vs veh, SNHG1 /// SNORD22 /// SNORD25 /// SNORD26 /// SNORD27 /// SNORD28 /// SNORD29 /// SNORD31 / Fold change (Aza/veh), C12orf56 (ProbeSet 11735607_a_at) / Fold change (ACY-1035/veh), C12orf56 (ProbeSet 11735607_a_at) / Fold change (Aza/veh), FGFR1OP (ProbeSet 11751329_s_at) / Fold change (ACY-1035/veh), FGFR1OP (ProbeSet 11751329_s_at) / Fold change (Aza/veh), VPS36 (ProbeSet 11739960_a_at) / Fold change (ACY-1035/veh), VPS36 (ProbeSet 11739960_a_at) / RFU SYPL1 (11715823_x_at) / Fold change /veh SYPL1 (11715823_x_at) / RFU IGFBP7 (11715501_s_at) / Fold change /veh IGFBP7 (11715501_s_at) / RFU REEP3 (11722064_at) / Fold change /veh REEP3 (11722064_at) / RFU IGLL1 (11728026_x_at) / Fold change /veh IGLL1 (11728026_x_at): dose or concentration left out as unconfirmed
Details: MV-4-11 cells, 48 hours

Nc1ncn([C@@H]2O[C@H](CO)[C@@H](O)[C@H]2O)c(=O)n1 [azacitidine]
RFU TMPRSS6 (11731388_a_at): 68.82 RFU
